Where two headings read alike, the source gives them in different places.
Assays:
[1] = system: cAMP response element luciferase activity in human U937 monocytic cells; experiment: Potentiation of forskolin-induced CRE-luciferase activity in U937 cells; assay type: cell-based; conditions: U-937, U937 cells co-incubated with 10 μM forskolin, 4 hours, X marks this range
Method: Compounds of the present invention were thereby shown to provide potentiated luciferase expression in U937 cells treated with the adenylyl cyclase activator forskolin.
Human pro-monocytic U937 cells were maintained in RPMI medium containing 10% FCS and 2 mM […]. U937 cells were transiently transfected as described in Biotechniques Vol. 17(6):1058, 1994. Briefly, cells were grown in medium containing serum to a density of 5×10^6 cells/mL and then resuspended in media containing serum at a density of approximately 1×10^7 cells/mL. 400 μL of cells were transferred into the electroporation cuvette containing 10 μg of the reporter vector (PCRE-luc) in a volume of 40 μL H2O. Reporter vector DNA was prepared from DH5α E. coli using the DNA […] free kit (Qiagen) as per manufacturers instructions. U937 cells were clectroporated at room temperature using a BIORAD electroporator. Capacitance was set to 1050 μF and voltage was 280V. The time constant was noted after each electroporation. Cells were then diluted in 4 mL of media and serum and 200 μL of cells were plated per well. Cells were allowed to recover for 16-18 hours. Cells were then treated with a test compound or vehicle in the presence or absence of 10 μM forskolin for 4 hours at 37° C.
The luciferase assay was performed as per manufacturers instructions (Tropix). Briefly, cells were centrifuged for 4 minutes at 1200 rpm and media supernatant was removed. Cell pellets were lysed in 15 μL Lysis buffer (Tropix). Luciferase assay was performed using 10 μL of cell lysate with 10 μL of buffer A and 25 μL buffer B. Luciferase activity was obtained using a luminometer with a 5-second delay followed by a read time of 10 seconds.

[2] = system: High Affinity Rolipram Binding Site of PDE4 in Mouse Brain; experiment: Displacement of [3H]-rolipram from its high affinity binding site (HARBS); conditions: ratio of IC50 for PDE4 catalytic activity to concentration displacing 50% of rolipram from HARBS
Method: Suspension was centrifuged twice at 30,000×G at 4° C. and the supernatant discarded. The pellet was resuspended in buffer, and adjusted to a protein concentration of 0.5 mg/mL. Drugs to be tested were dissolved in DMSO and pipetted in triplicate into a 96 well microplate at concentrations ranging from 1 to 30,000 nM. […] The plate was incubated at 4° C. for 1 hour. Contents of the plate were aspirated through a Whatman GF/C filterplate, and rinsed with 4×200 μL ice-cold buffer. […] Triplicate determinations were performed at each concentration.

[3] = system: Resiniferitoxin-induced mouse ear edema; experiment: Resiniferitoxin-induced mouse ear edema; assay type: in vivo; conditions: CD1 mice; for inhibition in vivo at 100 mg/kg: ip, intraperitoneal administration
Text: One of the primary characteristics of inflammation is an increase in vascular dilation and permeability leading to the extravasation of, and collection of fluids in, the interstitium, resulting in redness and swelling. Rheumatoid arthritis in particular is characterized by pronounced edema of affected joints resulting in significant pain and stiffness. The mouse ear inflammation model is a standard in vivo assay for inflammation that is based on an increase in ear weight which is attributable to edema induced by inflammatory mediators. RTX (resiniferitoxin; Sigma; Catalogue No. R 8756)) is a diterpene isolated from the plant Euphorbia poisonii and is an ultrapotent analog of capsaicin. RTX acts by selectively stimulating nociceptive and thermal-sensitive nerve ending in tissue, eliciting neurogenic edema. Compounds of the present invention, whether administered topically, intraperitoneally or orally, inhibited development of edema induced by topical application of RTX.
Mice (CD1, Charles River Laboratories) were separated into groups (n—5−8) and tagged. Control mice had RTX (0.1 μg/ear) applied topically to the inner and outer sides of the left ear and vehicle applied to the right ear as a control. For topical administration, experimental/treatment mice received RTX+test compound solution (50 μg/ear) on the left ear and acetone on the right ear. For intraperitoneal (i.p.) administration, 100 mg/kg test compound dissolved in 100 μL PEG 200:saline (1:1) was injected followed by a 30 minute waiting period then the standard 30 minute RTX edema induction. For oral (p.o.) administration, 10 mg/kg test compound in 100 μL PEG-200 was given to animals, then edema induced using 0.1 μg/ear RTX after a 1.5 hour waiting period. After edema induction, mice were sacrificed, and a standard disc of ear tissue was removed. Each disk of tissue was immediately weighed to the nearest 1/10th of a mg. Data were analyzed by taking the difference of each left ear from the right ear, calculating the mean+/−SEM. Statistical significance was tested by 2-sample t-test on the left/right ear weight differences of the control group vs. the experimental group.

[4] = system: primary human neutrophils; experiment: fMLP-induced human neutrophil chemotaxis; assay type: cell-based; conditions: fMLP-induced chemotaxis, X marks this range, read-out: IC50 RANGE (μM) 1-10
Method: Chemotaxis buffer containing the chemoattractant fMLP (10 μM) was added to each well of a chemotaxis plate and a filter was inserted ensuring contact between the filter and the chemotaxis buffer in the well. A submaximal concentration of chemoattractant was used which had been determined in previous experiments. […] Freshly isolated neutrophils (1×10^6) were incubated with vehicle (0.125% DMSO)±test compound for 1 hr at 37° C. Treatment and control cell suspensions were then gently resuspended and 20 μL of cells was added to the top side of the filter on each well. The plate was incubated for 1.5 hours at 37° C. under 5% CO2. Cells were then removed from the top side of the filter by aspiration and the entire plate was centrifuged. The filter was removed and known concentrations of cells were added to unused wells to prepare a standard curve. XTT (Sigma; Catalogue No. X 4251)/PMS (Sigma; Catalogue No. P 7626) solution prepared in buffer was added to each well and the cells were further incubated 1-2 hours and measured for absorbance at 450 nm. Absorbance values were converted to cell numbers using the standard curve. IC50 values are averages from at least three separate experiments with triplicate determinations.

[5] = molecular target: T1, cAMP phosphodiesterase 3 from human platelets (Homo sapiens, UniProt Q14432); experiment: Inhibition of cAMP phosphodiesterase 3 from human platelets; assay type: biochemical; conditions: PDE3, platelet cell extract, X marks this range
T1 construct: from tissue; host or cells: human platelets, cytoplasmic extract
Text: Compound 12 was screened for activity against 5 of the major classes of mammalian cyclic nucleotide phosphodiesterase (termed PDE 1 through 5). PDE's 1 through 4 utilize cAMP as substrate while PDE 5 uses cGMP. The broad specificity PDE inhibitor 3-isobutyl-1-methylxanthine (IBMX; Sigma; Catalogue No. 17018)) was used as a positive control in all assays. PDE's for the various assays were partially purified from the following cells/tissues; PDE 1 (bovine heart), PDE 2 (human platelets), PDE 3 (human platelets), PDE 4 (human promonocytic U937 cells) and PDE 5 (human platelets).
Platelet cell extracts were prepared as described above for the U937 cells. The PDE3 assay was performed using platelet cell extract as described above for the PDE 4 assay. Platelets contain PDE 2, 3 and 5. However PDE2 and 5 preferentially utilize cGMP, so in an assay with cAMP as a substrate they are not detected.

[6] = system: primary human neutrophils; experiment: Generation of reactive oxygen species by fMLP-activated neutrophils (luminol-enhanced chemiluminescence); assay type: cell-based; conditions: Neutrophil
Text: Neutrophil activation can be measured by quantitation of ROS generated in vitro. Measurement of ROS allows specific quantitation of a pro-inflammatory species and is also a general measure of neutrophil activation. The most sensitive method for measuring the production of ROS by neutrophils is luminol-enhanced chemiluminescence. […] The assay system used to evaluate the ability of compounds to inhibit ROS generation in neutrophils is indicative of anti-inflammatory activity that may be efficacious in disease states including but not limited to rheumatoid arthritis and inflammatory bowel disease.
Freshly isolated primary human neutrophils (5×10^6 cells/mL) were incubated with the required concentrations of compound or vehicle for 30 minutes at 37° C. in HBSS buffer (pH 7.4) containing Ca^2+. 100 nM wortmannin was used as a positive control. Aliquots of each sample were transferred to a microtitre plate to which luminol (1 μM); obtained from Sigma; Catalogue No. A8511 is added. Activation of the neutrophils was immediately initiated by addition of (1 μM) fMLP; obtained from Sigma, Catalogue No. F3506. Light output from each well was recorded for 30 minutes in a microplate luminometer. Total light output (integral of the time-course) was determined for each well. Inhibitory activities of test drugs against neutrophil ROS generation is expressed as percentage activity relative to a no drug control (100% activation or generation of ROS) containing 0.25% DMSO. Concentration of test compound required to inhibit the generation of ROS to 50% of control values (IC50's) were determined from concentration-response curves by non-linear regression analysis.

[7] = Mus musculus, topical administration, 50 μg/ear, RTX 0.1 μg/ear
[8] = ROS production, X marks this range, read-out: IC50 RANGE (μM) 1-10
[9] = read-out: EC50 range (μM) 0.1-1
[10] = read-out: IC50 RANGE (μM) <1, ROS production, X marks this range
[11] = read-out: IC50 range (μM) 10-100

T1 sequence (Q14432 whole entry): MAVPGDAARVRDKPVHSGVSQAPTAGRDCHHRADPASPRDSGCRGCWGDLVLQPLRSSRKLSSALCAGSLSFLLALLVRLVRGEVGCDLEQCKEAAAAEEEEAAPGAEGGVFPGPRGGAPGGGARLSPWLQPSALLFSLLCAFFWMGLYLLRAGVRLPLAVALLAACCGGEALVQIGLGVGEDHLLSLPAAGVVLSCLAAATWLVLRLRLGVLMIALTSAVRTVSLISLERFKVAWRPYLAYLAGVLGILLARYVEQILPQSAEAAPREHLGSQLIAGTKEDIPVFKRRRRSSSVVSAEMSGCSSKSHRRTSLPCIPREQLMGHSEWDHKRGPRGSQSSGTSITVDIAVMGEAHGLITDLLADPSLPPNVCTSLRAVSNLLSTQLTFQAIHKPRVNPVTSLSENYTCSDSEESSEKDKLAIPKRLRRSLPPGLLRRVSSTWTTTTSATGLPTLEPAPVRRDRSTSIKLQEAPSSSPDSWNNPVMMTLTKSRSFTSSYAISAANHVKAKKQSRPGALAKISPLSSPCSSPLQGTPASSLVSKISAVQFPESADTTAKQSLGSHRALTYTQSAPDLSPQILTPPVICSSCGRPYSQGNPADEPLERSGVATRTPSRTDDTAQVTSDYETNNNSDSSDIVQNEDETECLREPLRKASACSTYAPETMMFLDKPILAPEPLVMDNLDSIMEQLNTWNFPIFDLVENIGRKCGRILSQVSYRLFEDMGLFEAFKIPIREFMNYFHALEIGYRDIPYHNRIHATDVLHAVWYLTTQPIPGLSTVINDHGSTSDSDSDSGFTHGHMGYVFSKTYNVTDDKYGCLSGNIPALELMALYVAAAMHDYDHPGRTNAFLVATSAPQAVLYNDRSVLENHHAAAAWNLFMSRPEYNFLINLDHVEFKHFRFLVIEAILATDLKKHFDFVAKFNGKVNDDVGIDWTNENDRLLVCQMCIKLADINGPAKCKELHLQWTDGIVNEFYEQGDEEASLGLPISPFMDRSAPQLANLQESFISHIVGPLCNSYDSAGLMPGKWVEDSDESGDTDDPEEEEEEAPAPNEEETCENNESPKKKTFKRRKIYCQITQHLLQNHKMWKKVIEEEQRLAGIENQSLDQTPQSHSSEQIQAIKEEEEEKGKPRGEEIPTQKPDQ

Row | SMILES | EC50 ([1]; read-out: EC50 range (μM) 1-25) | PDE4:HARBS [2] | IC50 [5] | IC50 [6, 10] | also measured
1 | COc1ccc([C@@H]2CCC(=O)OC2)cc1OC [Compound 21] | 1 to 25 µM | <1 | > 100 µM | – | inhibition in vivo at 50 µg/ear [3, 7]: 32%; IC50 [4]: 1 to 10 µM; IC50 [6, 8]: 1 to 10 µM
2 | COc1cc(CC2C[C@@H](c3ccc(OC)c(OC4CCCC4)c3)COC2=O)ccc1OCc1ccccc1 (stereo partly drawn) [Compound 42] | 1 to 25 µM | <1 | > 100 µM | – | inhibition in vivo at 100 mg/kg ([3]; Mus musculus): 38%; inhibition in vivo at 10 mg/kg ([3]; Mus musculus, oral administration, 10 mg/kg): 41%; IC50 ([6]; ROS production, X marks this range, read-out: IC50 RANGE (μM) 10-100): 10 to 100 µM
3 | BrCc1ccc(OCc2ccccc2)c(OCc2ccccc2)c1 [Compound 78, 3,4-dibenzyloxy benzyl bromide] | – | – | – | – | inhibition in vivo at 50 µg/ear [3, 7]: 93%
4 | COc1ccc([C@@H](CO)CCC(=O)OC(C)(C)C)cc1OCc1ccccc1 [Compound 91] | – | – | – | – | % Inhibition of Edema ([3]; topical administration, 50 μg/ear, RTX 0.1 μg/ear): 27%
5 | COc1ccc([C@@H]2CCC(=O)OC2)cc1OCc1ccccc1 [Compound 92] | – | – | – | – | inhibition in vivo at 50 µg/ear [3, 7]: 93%
6 | CCCCOc1cc([C@@H]2CCC(=O)OC2)ccc1OC [Compound 99] | – | >1 | > 100 µM | < 1 µM | EC50 [1, 9]: 0.1 to 1 µM; inhibition in vivo at 100 mg/kg ([3]; Mus musculus): 88%; inhibition in vivo at 50 µg/ear [3, 7]: 98%
7 | COc1ccc([C@@H]2CCC(=O)OC2)cc1OC(C)=O [Compound 103] | – | – | – | – | inhibition in vivo at 50 µg/ear [3, 7]: 94%
8 | COc1cc(CC2CC(c3ccc(OC)c(OC)c3)COC2=O)ccc1O (stereo not drawn) [Compound 129] | 1 to 25 µM | <1 | – | < 1 µM | IC50 [4]: 1 to 10 µM; IC50 [5, 11]: 10 to 100 µM
9 | COc1cc(C[C@@H]2C[C@H](c3ccc(OC)c(OC)c3)COC2=O)ccc1O [Compound 130] | 1 to 25 µM | <1 | – | < 1 µM | IC50 [4]: 1 to 10 µM; IC50 [5, 11]: 10 to 100 µM

Further lines, with some results ahead:

Row | EC50 ([1]; read-out: EC50 range (μM) 1-25) | PDE4:HARBS [2] | IC50 [5] | IC50 [6, 10] | SMILES | also measured
10 | 1 to 25 µM | <1 | – | < 1 µM | COc1ccc([C@H]2COC(=O)C(Cc3ccc(OC)c(OCc4ccccc4)c3)C2)cc1OC (stereo partly drawn) [Compound 135] | IC50 [5, 11]: 10 to 100 µM
11 | 1 to 25 µM | <1 | > 100 µM | – | COc1ccc([C@@H]2CCC(=O)OC2)cc1OC(C)C [Compound 155] | EC50 [1, 9]: 0.1 to 1 µM; IC50 [6, 8]: 1 to 10 µM
12 | – | 1 | > 100 µM | < 1 µM | C=C(C)COc1cc([C@@H]2CCC(=O)OC2)ccc1OC [Compound 156] | EC50 [1, 9]: 0.1 to 1 µM
13 | – | >1 | > 100 µM | < 1 µM | COc1ccc([C@@H]2CCC(=O)OC2)cc1OCC1CCC1 [Compound 157] | EC50 [1, 9]: 0.1 to 1 µM
14 | 1 to 25 µM | <1 | > 100 µM | < 1 µM | COc1ccc([C@H]2COC(=O)C(Cc3ccccc3)C2)cc1OC1CCCC1 (stereo partly drawn) [Compound 168] | –
15 | – | <1 | > 100 µM | – | COc1ccc([C@H]2COC(=O)C(Cc3ccccc3[N+](=O)[O-])C2)cc1OC1CCCC1 (stereo partly drawn) [Compound 174] | EC50 ([1]; read-out: EC50 range (μM) >25): > 25 µM; IC50 ([6]; read-out: IC50 RANGE (μM) >100, ROS production, X marks this range): > 100 µM
16 | 1 to 25 µM | <1 | > 100 µM | – | COc1ccc([C@H]2COC(=O)C(Cc3cccc([N+](=O)[O-])c3)C2)cc1OC1CCCC1 (stereo partly drawn) [Compound 175] | IC50 [6, 8]: 1 to 10 µM
17 | – | <1 | > 100 µM | – | COc1ccc(CC2(Cc3ccc(OC)c(O)c3)C[C@@H](c3ccc(OC)c(OC4CCCC4)c3)COC2=O)cc1O [Compound 181] | EC50 ([1]; read-out: EC50 range (μM) >25): > 25 µM; IC50 [6, 8]: 1 to 10 µM
18 | 1 to 25 µM | >1 | > 100 µM | < 1 µM | COc1ccc([C@H]2COC(=O)C(Cc3cccc(N)c3)C2)cc1OC1CCCC1 (stereo partly drawn) [Compound 184] | –

Reference: patent publication US20030186943A1, “Substituted gamma-phenyl-delta-lactams and uses related thereto” (Inflazyme Pharmaceuticals Ltd., priority 1998, published 2003)
